Reference: article PMC4445981, “The glutamate transport inhibitor DL-Threo-β-Benzyloxyaspartic acid (DL-TBOA) differentially affects SN38- and oxaliplatin-induced death of drug-resistant colorectal cancer cells” (BMC Cancer, 2015)

What was measured:
[1] = system: [3H]-D-Asp uptake (glutamate transporter activity) in LoVo-PAR cells; assay: [3H]-D-Asp uptake assay, LoVo-PAR; type: cell-based, human; details: LoVo-PAR, 100 nM [3H]-D-Asp, 6 min, 37 °C
Procedure: We therefore next determined glutamate transporter activity (as uptake of the substrate [^3H]-D-Asp following a 6-min incubation in buffer supplemented with a tracer concentration of 100 nM [^3H]-D-Asp). […] To determine which transporter(s) was responsible for the [^3H]-D-Asp uptake, we assessed the effect of DL-TBOA, a nonselective inhibitor of EAATs, and UCPH-101, a specific SLC1A3 inhibitor [16, 28, 29]. […] Basal [^3H]-D-Asp uptake was decreased by about 60 % in SN38-resistant compared to parental HCT116 cells, whereas that in SN38-resistant LoVo cells was nearly tripled compared to parental LoVo cells.
The [^3H]-D-Asp uptake assay was performed essentially as in [30]. Briefly, cells were split into poly-D-lysine-coated white 96-well plates (PerkinElmer). A similar number of cells were seeded for HCT116 parental, HCT116-SN38 and HCT116-Oxa cell lines (7 × 10^4 cells/well) and LoVo parental, Lovo-SN38 and Lovo-Oxa cell lines (6 × 10^4 cells/well). 16–24 h later, culture medium was aspirated, and cells were washed once with 100 μl assay buffer (Hank’s Buffered Saline Solution supplemented with 20 mM HEPES, 1 mM CaCl2 and 1 mM MgCl2, pH 7.4). 50 μl assay buffer supplemented with 100 nM [^3H]-D-Asp and test compounds as indicated was added, and the plate was incubated at 37 °C for 6 min. Non-specific [^3H]-D-Asp uptake was determined in wells with 3 mM L-glutamate. The assay mixture was quickly removed, and wells were washed with 2 × 100 μl ice-cold assay buffer, followed by 150 μl Microscint™20 scintillation fluid (PerkinElmer). The plate was shaken for 1 h and counted in a Wallac 1450 MicroBeta Trilux scintillation counter (GMI, Ramsey, MN).

SLC1A3 = details: depending on the system and experimental setup; cited from earlier work
[2] = system: parental and drug-resistant HCT116 and LoVo cell lines; assay: Nucleus (DAPI) counting of adherent cells, OPERA confocal; type: cell-based, human; details: DL-TBOA 70 or 350 μM with SN38 or oxaliplatin, 48 h
Procedure: Cells were seeded in 96-well plates (Greiner Bio) one day prior to experiments. Cells were treated with chemotherapy and/or inhibitors as indicated and incubated for 48 h. Medium was aspirated, and cells were washed gently in ice cold PBS, fixed in 2 % paraformaldehyde, washed in PBS, and nuclei stained by 5 min incubation with DAPI. Plates were scanned using an OPERA high-throughput microscope (PerkinElmer). Nucleus counting was performed using proprietary OPERA software, based on 100 points per well, and cell counts from non-treated cells as controls.
Supplementary file 12885_2015_1405_MOESM2_ESM.tiff: Additional file 2: Figure S2. Nucleus counting after treatment of parental and drug-resistant HCT116 and LoVo cells with DL-TBOA. Parental and drug-resistant HCT116 and LoVo cell lines seeded in 96-well dishes were exposed to SN38 (0.1 or 0.8 μM) or oxaliplatin (0.8 or 20 μM), alone or in combination with 70 or 350 μM DL-TBOA as indicated, for 48 h. Cells were washed in PBS, fixed in 2 % paraformaldehyde and nuclei were stained with DAPI. The number of adherent cells was determined by automated counting using an OPERA confocal microscope. (A-B) Parental HCT116 cells. (C) SN38 resistant HCT116 cells. (D) Oxaliplatin-resistant HCT116 cells. (E-F) Parental LoVo cells. (G) SN38 resistant LoVo cells. (H) Oxaliplatin-resistant LoVo cells. […]

N[C@H](C(=O)O)[C@H](OCc1ccccc1)C(=O)O (racemic) [TBOA, DL-Threo-β-Benzyloxyaspartic acid]
pIC50 ± S.E.M., [3H]-D-Asp uptake [1]: 5.84 ± 0.03
IC50 ([1]; read-out: IC50, [3H]-D-Asp uptake): 1400 nM
IC50 values in uptake assays (SLC1A3): low micromolar range
effect on number of surviving adherent cells after chemotherapy [2]: opposite effects of DL-TBOA on SN38- and oxaliplatin-induced loss of viability are also evident
